Data published in ChEMBL document CHEMBL1158210, “New Destruxins from the Entomopathogenic Fungus Aschersonia sp” (1996).
Values after ≈ are worked out from the molar mass of the structure shown. Active and inactive are the calls of the source. No cut-off for these calls is given here. Starred links: 1 amine or outer side, 2 acyl side, 3 side chain; linkers in the order of their positions; H or OH if unused. Non-standard residues stand in square brackets, D forms with d. Residues, ends and D or L forms follow the SMILES beside them. NMeI = CC[C@H](C)[C@H](NC)C(=O)O; X1 = C=CC[C@H](O[*:1])C(=O)[*:2]; Hica(2S) = CC(C)C[C@H](O)C(=O)O; NMeA = CN[C@@H](C)C(=O)O; βAla = NCCC(=O)O

Key:
[1] = system: Drosophila melanogaster; assay: Insecticidal activity against Drosophila melanogaster assessed as mortality at 200 ug/ml after 40 hrs; assay type: functional, organism-based
[2] = system: Drosophila melanogaster; assay: Insecticidal activity against Drosophila melanogaster after 40 hrs; assay type: functional
[3] = system: Drosophila melanogaster; assay: Insecticidal activity against Drosophila melanogaster assessed as mortality at 400 ug/ml after 48 hrs; assay type: functional, organism-based

Compound | Activity [1] | LC50 [2] [µg/mL] | Activity [3]
C=CCC1OC(=O)CCNC(=O)[C@H](C)N(C)C(=O)[C@H]([C@@H](C)CC)N(C)C(=O)[C@H]([C@@H](C)CC)NC(=O)[C@@H]2C(C)CCN2C1=O (stereo not given in full) [DESTRUXIN A5] | Active | 52 (≈ 85.8 µM) | 
CC[C@H](C)[C@@H]1NC(=O)[C@@H]2CCCN2C(=O)[C@H](CC(C)C)OC(=O)CCNC(=O)[C@H](C)N(C)C(=O)[C@H]([C@@H](C)CC)N(C)C1=O (cyclo(I[NMeI][NMeA][βAla][Hica(2S)]P)) |  |  | inactive
C=CC[C@@H]1OC(=O)CCNC(=O)[C@H](C)N(C)C(=O)[C@H]([C@@H](C)CC)N(C)C(=O)[C@H]([C@@H](C)CC)NC(=O)[C@@H]2CCCN2C1=O [destruxin A4] (cyclo(I[NMeI][NMeA][βAla][X1]P)) | Active | 41 (≈ 69.3 µM) | 
